Experimental data from patent publication US20080069809A1, “Compositions and methods for the diagnosis and treatment of cancer” (priority 2006, published 2008).

Legend:
[1] = test system: EGFP-positive PKC-δ-expressing KG1a cells; experiment: Apoptosis / viability in KG1a cells transfected with EGFP-PKC-δ; assay type: cell-based
Protocol: KG1a cells were transiently transfected with EGFP-tagged mouse PKC-δ subcloned into pEGFP-N1 plasmid (available from National Cancer Institute [NCI], Bethesda, Md.) using an Amaxa nucleofection apparatus (Amaxa, Koeln, Germany). Transfection efficiency was approximately 35% as judged by fluorescence-activated cell sorter (FACS) analysis and cells were treated with PEP005 (0.2 μM-20 μM) 24 hours after transfection. Cell viability in EGFP-positive cells was assessed by analysis of cell morphology (forward scatter and side scatter profile) by FACS and loss of viability confirmed in the total cell culture by MTT assay after 3 days. Briefly, 24 hours after transfection, 2×10^4 cells were plated in five wells in 96-well plates and exposed to […] PEP005. At 72 hours, 20 μL MTT substrate at 5 mg/mL was added and plates were incubated at 37° C. After 3 hours, 150 μL media was removed and replated with 200 μL dimethyl sulfoxide (DMSO). Absorbance at an optical density (OD) of 550 nm was read on a Biotech plate reader (Amersham Pharmacia) and corrected for absorbance obtained from blank media controls.

caspase-3 = experiment: Caspase-3 phosphorylation in 32PO4-labeled HL60 cells; assay type: cell-based; settings: 20 nM PEP005
Protocol: To determine if PEP005 induced caspase-3 phosphorylation, HL60 cells were incubated with 1.5×10^7 Bq/mL ^32PO4 (Amersham Pharmacia) in phosphate-free medium for 3 hours prior to addition of 20 nM PEP005 or PEP005 and 5 μM rottlerin (Calbiochem, Nottingham, United Kingdom). Cells were then lysed and caspase-3 was immunoprecipitated with an anti-caspase-3 antibody (BD Pharmingen, Oxford, United Kingdom) or an irrelevant isotype-matched control antibody (DAKO) and the immunoprecipitate was isolated using an anti-mouse immunoglobulin G (IgG) antibody (DAKO) and protein G-coated magnetic beads (microbeads; Miltenyi Biotech). The isolate was taken up in SDS sample buffer and run on a 10% w/v SDS-polyacrylamide gel electrophoresis (PAGE) gel and the labeled proteins were visualized using a phosphorimager.

PKC-δ [2] = target: T1, PKC-δ (Homo sapiens, UniProt Q05655); experiment: PKC-δ activation by translocation (cell fractionation, Western blotting) in HL60 cells; assay type: cell-based; settings: 10 minutes
T1 construct: endogenous in cells; host or cells: HL60
T1 sequence (Q05655 whole entry): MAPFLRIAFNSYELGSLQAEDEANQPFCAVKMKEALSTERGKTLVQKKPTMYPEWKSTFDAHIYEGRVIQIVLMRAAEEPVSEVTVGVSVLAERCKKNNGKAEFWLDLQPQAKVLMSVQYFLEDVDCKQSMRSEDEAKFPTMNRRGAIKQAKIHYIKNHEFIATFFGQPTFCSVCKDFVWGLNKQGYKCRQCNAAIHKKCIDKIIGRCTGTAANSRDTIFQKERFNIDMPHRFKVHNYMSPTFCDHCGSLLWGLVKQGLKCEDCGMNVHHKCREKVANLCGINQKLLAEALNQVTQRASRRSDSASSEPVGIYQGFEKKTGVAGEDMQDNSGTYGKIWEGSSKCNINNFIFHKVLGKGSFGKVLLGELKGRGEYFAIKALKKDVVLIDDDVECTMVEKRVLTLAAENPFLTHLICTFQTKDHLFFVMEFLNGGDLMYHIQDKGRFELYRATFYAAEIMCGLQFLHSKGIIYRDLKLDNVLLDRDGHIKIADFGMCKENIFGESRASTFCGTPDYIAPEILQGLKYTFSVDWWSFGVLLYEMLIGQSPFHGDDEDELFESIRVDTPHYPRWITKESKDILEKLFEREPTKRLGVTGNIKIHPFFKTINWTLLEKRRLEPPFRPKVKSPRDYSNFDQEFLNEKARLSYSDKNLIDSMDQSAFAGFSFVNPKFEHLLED
Protocol: PKC translocates from the soluble to the particulate fraction of cells when activated and this method was used to assess activation of PKC-δ by PEP005 and PMA. Briefly, cells were incubated for 10 minutes in medium alone or 20 nM PEP005 or 20 nM PMA, washed twice in phosphate buffered saline (PBS) and then lysed by homogenization in hypotonic lysis buffer in the absence of detergent. Lysis was checked using trypan blue uptake. Nuclei were isolated by centrifugation at 1000 g for 10 minutes. Centrifugation at 100,000 g for 45 minutes at 4° C. was used to isolate the cytosol (supernatant) and cell membrane (pellet) fractions. All were taken up in SDS sample buffer and analyzed for PKC-δ by Western blotting.

PKC-δ [3] = target: T1, PKC-δ; experiment: PKC-δ cleavage to 40-kDa fragment in HL60 cells (Western blotting); assay type: cell-based; settings: 20 nM PEP005 for up to 9 hours
Protocol: PKC isoenzyme expression in leukemic cell lines was determined by Western blotting. Cells (0.5×10^6) were lysed in lysis buffer (20 mM Tris [tris(hydroxymethyl-aminomethane]-HCl, pH 7.4, containing 150 mM NaCl, 0.5 mM EDTA [ethylenediaminetertraacetic acid], 1 mM dithiothreitol, 1 mM phenymethlsulfonylfuoride, 10 μg/mL of aprotinin, leupeptin, and pepstatin A, and 1% Triton-X-100). the lysate was spun at 1000 g for 10 minutes to isolate nuclei and was then combined 1:1 with sodium dodecyl sulfate (SDS) sample buffer and boiled for 5 minutes. The extracts were then analyzed by Western blotting using antibodies to the major isoenzymes found in myeloid cells, namely PKC-α, PKC-β, PKC-δ and PKC-ξ (all purchased from Santa Cruz Biotechnology, Santa Cruz, Calif.). Blots were developed using an enhanced chemiluminescence (ECL) method (Amersham Pharmacia, Buckinghamshire, United Kingdom).

protein kinase C (PKC) = settings: Kedei et al 2004; cited from earlier work
U937 = experiment: Differentiation (CD11b expression) in U937 cells; assay type: cell-based
Protocol: The myeloid leukemic cell lines HL60, NB60, NB4, U937, K562 and KG1a were all grown in RPMI 1640 medium (Life Technologies, Paisley, United Kingdom) supplemented with 10% v/v fetal calf serum (Sear Laboratories International Crawley, United Kingdom), 100 U/mL penicillin, and 100 μg/mL streptomycin (Sigma Aldrich, Poole, United Kingdom) at 37° C. and 5% v/v CO2. AML blasts were isolated from patient bone marrow aspirates and peripheral blood of eight patients at diagnosis or relapse. Patients were not receiving AML therapy at time of sampling. Blasts were isolated by Ficoll density centrifugation and were cultured in serum-free insulin transferrin selenium-positive (ITS+) medium (Life Technologies) containing 300 ng/mL stem cell factor (SCF) and 10 ng/mL interleukin 3 (IL3; R and D Systems, Abingdon, United Kingdom) and antibiotics. Blast purity ranged from 80% to 95%, as assessed by expression of CD34. Normal myeloblasts were isolated from cord blood or adult mobilized peripheral blood. Briefly, CD34^+ cells were indirectly selected from the mononuclear cell preparations using antibody-coated magnetic beads (Miltenyi Biotec, United Kingdom).
Cell differentiation was determined by staining of cells with anti-CD11b antibody as a general early marker of myeloid differentiation. In studies with HL60 cells, PEP005-treated and 20 nM phorbol myristate (PMA)-treated (Sigma Aldrich) cells were also assessed for their ability to phagocytose complement-coated yeast, a marker of a fully differentiated myeloid cell, as previously described (Toksoz et al, Leukemia Res 6:491-498, 1982). The ingestion of three or more yeasts was taken as a positive result. In normal cord blood or adult bone marrow myeloblasts, loss of CD34 was taken as a marker of differentiation. Isotype-matched controls were used and all antibodies were from DAKO (Cambridge, United Kingdom). […] Images were captured with a SPOT2 cameria (Diagnostic Instructions, Sterling Heights, Mich.) and analyzed using Image-Pro 4.0 software (Media Cybernetics, Silver Spring, Md.).

HL60 = experiment: Phagocytosis of complement-coated yeast by HL60 cells; assay type: cell-based; settings: after 3 days of treatment, PMA 20 nM
Protocol: Cell differentiation was determined by staining of cells with anti-CD11b antibody as a general early marker of myeloid differentiation. In studies with HL60 cells, PEP005-treated and 20 nM phorbol myristate (PMA)-treated (Sigma Aldrich) cells were also assessed for their ability to phagocytose complement-coated yeast, a marker of a fully differentiated myeloid cell, as previously described (Toksoz et al, Leukemia Res 6:491-498, 1982). The ingestion of three or more yeasts was taken as a positive result. In normal cord blood or adult bone marrow myeloblasts, loss of CD34 was taken as a marker of differentiation. Isotype-matched controls were used and all antibodies were from DAKO (Cambridge, United Kingdom). […] Cells were also used to prepare cytospins, which were then differentially stained using a commercial May-Grünwald-Ginesa stain (Diff-Kwik; Gamidor, Abingdon, United Kingdom) to identify cells with a blast or differentiated or apoptotic morphology. Slides were examined using a Zeiss III RS brightfield microscope equipped with a 40×/0.75 water-immersion objective (Carl Zeiss, Jena, Germany). Images were captured with a SPOT2 cameria (Diagnostic Instructions, Sterling Heights, Mich.) and analyzed using Image-Pro 4.0 software (Media Cybernetics, Silver Spring, Md.).

**Q.** What does the source list for `C/C=C(/C)C(=O)O[C@H]1C(C)=C[C@]23C(=O)[C@@H](C=C(CO)[C@@H](O)[C@]12O)[C@H]1[C@@H](C[C@H]3C)C1(C)C` [PEP005, ingenol-3-angelate]?
**A.** viability of total cell population by MTT assay ([1]; PEP005, after 3 days): Loss of viability was confirmed; apoptosis (forward and side scatter by FACS) ([1]; PEP005 for 3 days, 24 hours after transfection, doses commensurate with those in HL60, U937 and NB4): resulted in apoptosis; induction of caspase-3 phosphorylation (caspase-3): able to induce caspase-3 phosphorylation; site of initial PKC-δ translocation (PKC-δ [2]; 20 nM PEP005 or 20 nM PMA): to the nuclear and cell membranes; activation of PKC-δ (translocation from cytosol to membrane fraction) (PKC-δ [2]; 20 nM): induced activation of PKC-δ; production of the 40-kDa fragment of PKC-δ (PKC-δ [3]): produced rapidly; activation of protein kinase C (protein kinase C (PKC)): potent activator; predominant response (kinetic study) (U937): expressed CD11b as the predominant response before entering apoptosis; synergy with ATRA in CD11b differentiation response (U937; 10 nM ATRA and 20 nM PEP005 in combination, 5 days): able to synergize with ATRA; PEP005 concentration with optimal effect, CD11b expression (U937; treated 5 days): 20 nM; differentiation to phagocytes (ability to phagocytose yeast) (HL60): did not lead to production of phagocytic cells
